Results: patent publication US9617256B2 (priority 2007, dated 2017)
≈ marks a conversion by molar mass, not a printed value. Like-named read-outs stand apart in the source and are kept apart here.

Experiments:
[1] = tested on: AABA1060 (clinical isolate of Acinetobacter baumannii); experiment: MIC broth microdilution, AABA1060; type: cell-based; conditions: Acinetobacter baumannii, read-out: MIC AABA1060
Method: (§1) Bacterial isolates were cultivated from −70° C. frozen stocks by overnight passages at 35° C. in ambient air on Mueller-Hinton agar (Beckton Dickinson, Franklin Lakes, N.J.). Clinical isolates tested were obtained from various geographically diverse hospitals in the US and abroad (Focus Diagnostics, Herndon, Va. and JMI, North Liberty, Iowa). Quality control strains were from the American Type Culture Collection (ATCC; Rockville, Md.). Additional primary panel strains were generated using standard molecular biology techniques.
(§2) Minimum Inhibitory Concentrations (MICs) were determined by the broth microdilution method in accordance with the Clinical and Laboratory Standards Institute (CLSI) guidelines. In brief, organism suspensions were adjusted to a 0.5 McFarland standard to yield a final inoculum between 3×10^5 and 7×10^5 colony-forming units (CFU)/mL. Drug dilutions and inocula were made in sterile, cation adjusted Mueller-Hinton Broth (Beckton Dickinson). An inoculum volume of 100 μL was added to wells containing 100 μL of broth with 2-fold serial dilutions of drug. All inoculated microdilution trays were incubated in ambient air at 35° C. for 18-24 hours. […] Performance of the assay was monitored by the use of laboratory quality-control strains and levofloxacin, a compound with a defined MIC spectrum, in accordance with CLSI guidelines.
(§3) *AECO001 is ATCC25922, AECO063 is ATCC25922 bearing an acrAB mutation, APAE001 is ATCC27853, APAE006 is a strain of P. aeruginosa in which all efflux pumps are inactivated, APAE006+PMBN indicates MICs with the indicated strain in the presence of 8 micrograms per milliliter of polymyxin B nonapeptide, AABA1060 is a clinical isolate of Acinetobacter baumannii, ASAU001 is a laboratory strain of S. aureus (ATCC29213).

[2] = tested on: AECO063 (ATCC25922 bearing an acrAB mutation); experiment: microbe, parasite or virus in culture; type: cell-based, E. coli; conditions: Escherichia coli, ATCC25922, read-out: MIC AECO063
Method: as §1, §2, §3

[3] = tested on: ASAU001 (laboratory strain of S. aureus, ATCC29213); experiment: MIC broth microdilution, ASAU001; type: cell-based; conditions: Staphylococcus aureus, ATCC29213, read-out: MIC ASAU001
Method: as §1, §2, §3

[4] = tested on: APAE006 in the presence of 8 micrograms per milliliter of polymyxin B nonapeptide; type: cell-based, P. aeruginosa; conditions: APAE006 with 8 micrograms per milliliter polymyxin B nonapeptide
Method: as §1, §2, §3

[5] = tested on: AECO001 (ATCC25922); experiment: MIC broth microdilution, AECO001; type: cell-based, E. coli; conditions: Escherichia coli
Method: as §1, §2, §3

[6] = tested on: APAE001 (ATCC27853); experiment: MIC broth microdilution, APAE001; type: cell-based, P. aeruginosa; conditions: Pseudomonas aeruginosa
Method: as §1, §2, §3

[7] = tested on: APAE006 (strain of P. aeruginosa in which all efflux pumps are inactivated); experiment: microbe, parasite or virus in culture; type: cell-based; conditions: Pseudomonas aeruginosa
Method: as §1, §2, §3

[8] = ATCC25922, read-out: MIC AECO001
[9] = ATCC25922, read-out: MIC AECO001 HSA AGP
[10] = ATCC27853, read-out: MIC APAE001, APAE001 (ATCC27853)
[11] = read-out: MIC APAE006, APAE006, all efflux pumps inactivated
[12] = ATCC27853, read-out: MIC APAE001, APAE001 is ATCC27853
[13] = read-out: MIC APAE006, P. aeruginosa, all efflux pumps inactivated

Row | Compound | MIC [1] [µg/mL] | MIC [2] [µg/mL] | MIC [3] [µg/mL] | MIC APAE006 + PMBN [4] | MIC [5, 8] [µg/mL] | MIC [5, 9] [µg/mL] | MIC [6, 10] [µg/mL] | MIC [7, 11] [µg/mL] | MIC [6, 12] [µg/mL] | MIC [7, 13] [µg/mL]
1 | CC(C)(N)[C@H](NC(=O)c1ccc(C#CC#Cc2ccc(F)cc2)cc1)C(=O)NO [Example 82-28] | < 2 | < 2 | 2 to 16 (≈ 5.08 to 40.7 µM) | A (MIC's of 2.0 μg/mL or less = A) | < 2 | 2 to 16 (≈ 5.08 to 40.7 µM) | 2 to 16 (≈ 5.08 to 40.7 µM) | < 2 | – | –
2 | O=C(NO)[C@@H](Cc1ccccc1)NS(=O)(=O)c1ccc(C#Cc2ccc(CN3CCOCC3)cc2)cc1 [Example 62-4, (R)—N-Hydroxy-2-[4-(4-morpholin-4-ylmethyl-phenylethynyl)-benzenesulfonylamino]-3-phenyl-propionamide] | – | – | > 64 | – | 2 to 16 (≈ 3.85 to 30.8 µM) | – | – | – | > 64 | 2 to 16 (≈ 3.85 to 30.8 µM)
3 | CC(C)(N)[C@H](NC(=O)c1ccc(C#CC#CCC2CC2)cc1)C(=O)NO [Example 91-26] | < 2 | < 2 | 16 to 64 (≈ 45.3 to 181 µM) | – | < 2 | < 2 | < 2 | < 2 | – | –
4 | CC(C)(O)[C@H](NC(=O)c1ccc(C#CC#Cc2cccs2)cc1)C(=O)NO [Example 88-11] | < 2 | < 2 | 16 to 64 (≈ 41.8 to 167 µM) | – | < 2 | < 2 | < 2 | < 2 | – | –
5 | O=C(NO)[C@@H]1CCN1S(=O)(=O)c1ccc(C#Cc2ccc(CN3CCOCC3)cc2)cc1 [Example 62-11] | – | – | > 64 | – | 2 to 16 (≈ 4.39 to 35.1 µM) | – | – | – | > 64 | < 2
6 | CC(C)CC#CC#Cc1ccc(C(=O)N[C@H](C(=O)NO)[C@@H](C)N)cc1 [Example 91-24] | 2 to 16 (≈ 5.86 to 46.9 µM) | < 2 | 2 to 16 (≈ 5.86 to 46.9 µM) | – | < 2 | 2 to 16 (≈ 5.86 to 46.9 µM) | < 2 | < 2 | – | –
7 | C[C@@H](N)[C@H](NC(=O)c1ccc(C#CC#CCC2CC2)cc1)C(=O)NO [Example 91-27] | 2 to 16 (≈ 5.89 to 47.1 µM) | < 2 | 16 to 64 (≈ 47.1 to 189 µM) | – | < 2 | 2 to 16 (≈ 5.89 to 47.1 µM) | < 2 | < 2 | – | –
8 | CC(C)(N)[C@H](NC(=O)c1ccc(C#CC#Cc2ccccc2F)cc1)C(=O)NO [Example 82-29] | < 2 | – | 2 to 16 (≈ 5.08 to 40.7 µM) | – | < 2 | < 2 | < 2 | < 2 | – | –
9 | O=C(NO)C1(NS(=O)(=O)c2ccc(C#Cc3ccc(CN4CCOCC4)cc3)cc2)CCCC1 [Example 62-8] | – | – | > 64 | – | 16 to 64 (≈ 33.1 to 132 µM) | – | – | – | > 64 | 16 to 64 (≈ 33.1 to 132 µM)
10 | O=C(NO)[C@H](COCc1ccccc1)NS(=O)(=O)c1ccc(C#Cc2ccc(CN3CCOCC3)cc2)cc1 [Example 62-5] | – | – | > 64 | – | 2 to 16 (≈ 3.64 to 29.1 µM) | – | – | – | > 64 | 16 to 64 (≈ 29.1 to 116 µM)
11 | C[C@H](NCC(=O)N[C@H](C)[C@H](NC(=O)c1ccc(C#Cc2ccccc2)cc1)C(=O)NO)c1ccccc1 [Example 132-5] | 16 to 64 (≈ 32.1 to 128 µM) | – | 16 to 64 (≈ 32.1 to 128 µM) | – | 16 to 64 (≈ 32.1 to 128 µM) | 16 to 64 (≈ 32.1 to 128 µM) | 16 to 64 (≈ 32.1 to 128 µM) | < 2 | – | –
12 | O=C(NO)[C@H](Cc1ccccc1)NS(=O)(=O)c1ccc(C#Cc2ccc(CN3CCOCC3)cc2)cc1 [Example 62-6] | – | – | > 64 | – | 16 to 64 (≈ 30.8 to 123 µM) | – | – | – | > 64 | 2 to 16 (≈ 3.85 to 30.8 µM)
